Measurements from publication PMC7217877, “N-AS-triggered SPMs are direct regulators of microglia in a model of Alzheimer’s disease” (Nature Communications, 2020).
“And” between values parts separate entries of the source, which are not always exact repeats. Equal values may be shown once. Read-outs that look alike come from different tables or passages of the source.

Experiments:
APP/PS1 mice [1] = assay: cerebral amyloid angiopathy (CAA) quantification (Fig 6f); type: in vivo, mouse; settings: Cortex; APP/PS1 + N-AS; individual values
Protocol: Thioflavin S (Sigma-Aldrich) staining was carried out according to previously described procedures. We used 6E10 (mouse, 1:100, Signet, SIG39300), anti-20G10 (mouse, 1:1000, provided by D. R. Howlett, GlaxoSmithKline, Harlow, Essex, UK) for Aβ42, anti-G30 (rabbit, 1:1000, provided by D. R. Howlett) for Aβ40, SMA (mouse, 1:400, Sigma-Aldrich, A2547), AT8 (mouse, 1:500, Thermo Fisher Scientific, MN1020), Caspase-3 (mouse, 1:200, Novus Biologicals, NB100-56708), ac-S565 (rabbit, 1:100), COX2 (mouse, 1:250, Thermo Fisher Scientific, 35-8200), Iba1 (rabbit, 1:500, Wako, 019-19941 and goat, Abcam, ab5076), NeuN (mouse, 1:500, Millipore, MAB177), GFAP (rabbit, 1:500, Dako, N1506 and chicken, 1:500, Abcam, ab4674), and Lamp1 (mouse, 1:200, Abcam, ab24170). The sections were analyzed with a laser-scanning confocal microscope (FV3000; Olympus) or with a BX51 microscope (Olympus). MetaMorph software (Molecular Devices) was used to quantification. Three-dimensional reconstruction of microglia was recorded and analyzed using IMARIS software (Bitplane)[11]. For the analysis of age-dependent microglial COX2^+ CX3CR1^+ cells in WT and APP/PS1 mice, COX2 (rabbit, 1:100, Abcam, ab15191) and CX3CR1 (mouse, 1:100, BioLegend, 149008) antibody were used and the images were acquired on Alexa 488 and APC Channel with performed using Operetta CLS and Analysis Software 4.5 (Perkin-Elmer). […]

APP/PS1 mice [2] = assay: morphometric analysis of Aβ plaques by size (Supplementary Fig 5d); type: in vivo, mouse
Protocol: Thioflavin S (Sigma-Aldrich) staining was carried out according to previously described procedures. We used 6E10 (mouse, 1:100, Signet, SIG39300), anti-20G10 (mouse, 1:1000, provided by D. R. Howlett, GlaxoSmithKline, Harlow, Essex, UK) for Aβ42, anti-G30 (rabbit, 1:1000, provided by D. R. Howlett) for Aβ40, SMA (mouse, 1:400, Sigma-Aldrich, A2547), AT8 (mouse, 1:500, Thermo Fisher Scientific, MN1020), Caspase-3 (mouse, 1:200, Novus Biologicals, NB100-56708), ac-S565 (rabbit, 1:100), COX2 (mouse, 1:250, Thermo Fisher Scientific, 35-8200), Iba1 (rabbit, 1:500, Wako, 019-19941 and goat, Abcam, ab5076), NeuN (mouse, 1:500, Millipore, MAB177), GFAP (rabbit, 1:500, Dako, N1506 and chicken, 1:500, Abcam, ab4674), and Lamp1 (mouse, 1:200, Abcam, ab24170). The sections were analyzed with a laser-scanning confocal microscope (FV3000; Olympus) or with a BX51 microscope (Olympus). MetaMorph software (Molecular Devices) was used to quantification. Three-dimensional reconstruction of microglia was recorded and analyzed using IMARIS software (Bitplane)[11]. For the analysis of age-dependent microglial COX2^+ CX3CR1^+ cells in WT and APP/PS1 mice, COX2 (rabbit, 1:100, Abcam, ab15191) and CX3CR1 (mouse, 1:100, BioLegend, 149008) antibody were used and the images were acquired on Alexa 488 and APC Channel with performed using Operetta CLS and Analysis Software 4.5 (Perkin-Elmer).
(§1) Transgenic mouse lines over-expressing the hAPP695swe (APP) and presenilin-1M146V (PS1) mutations were originated from GlaxoSmithKline (Harlow, UK)[32] and maintained as described previously. We purchased 5×FAD mice from Jackson Labs (Stock number. 34840-JAX). Because APP/PS1 and 5xFAD mice show sex differences in disease progression, we used only male mice. To examine possible therapeutic effect of N-AS and aspirin in APP/PS1 mice, the N-AS (30 mg kg^−1, Sigma-Aldrich, 01912) was injected daily s.c. for 8 weeks to 7-months-old APP/PS1 mice until the age of 9 months, and aspirin (2 mg kg^−1, Sigma-Aldrich, A5376)[33] was administrated orally to 7-months-old APP/PS1 mice for 8 weeks. Also, to confirm possible therapeutic efficacy of N-AS in 5×FAD, the N-AS (30 mg kg^−1, Sigma-Aldrich, 01912) was injected daily s.c. for 4 weeks to 3-months-old 5×FAD mice until the age of 4 months. Block randomization method was used to allocate the animals to experimental groups. To eliminate the bias, we were blinded in experimental progress such as data collection and data analysis. Mice were housed at temperature of 22 °C and a 12 h day/12 h night cycle with free access to tap water and food pellets. All protocols were approved by the Kyungpook National University Institutional Animal Care and Use Committee.

[3] = single-dose brain PK and brain distribution; type: in vivo, C57BL/6 mice; settings: mouse; for Kp / MRT / half-life / AUC(0-inf) / AUC(0-t): C57BL/6, brain; for AUC(0-inf): read-out: AUCinf (Brain); for AUC(0-t): read-out: AUClast (Brain)
Protocol: C57BL/6 mice were administered N-AS (Sigma-Aldrich, 01912) at doses of 1 mg kg^−1 (i.v.) or 10 mg kg^−1 (p.o.). Venous blood samples were collected at 5, 15, and 30 min, and 1, 2, 4, 8, and 24 h postdose. A 30 μl of plasma was separated from whole blood by centrifugation and stored at −80 °C until analysis. Also, brain samples were collected at 1, 2, 4, and 24 h postdose and heart, liver, and kidney samples were collected at 24 h postdose, thoroughly rinsed with physiological saline and weighed. Twenty percentage of tissue homogenates were prepared by homogenizing the tissue samples with four volumes of saline. A 30 μl aliquot of plasma or a 50 μl aliquot of tissue homogenates were deproteinized by addition of 200 μl cold methanol (containing naringenin as internal standard at 20 ng ml^−1) and centrifuged at 15,974×g for 10 min. A 10 μl aliquot of the supernatant was injected into Agilent 6470 LC-MS/MS system. Separation was performed on a Synergy Polar RP column (4 μm particle size, 2.0 mm ×150 mm, Phenomenex) using a mobile phase that consisted of methanol and water (85:15, v/v) with 0.1% formic acid at a flow rate of 0.2 ml min^−1. Quantification was carried out using multiple reaction monitoring (MRM) at m/z 340.3→263.3 for N-AS and m/z 271.1→151.3 for naringenin (internal standard) in negative ionization mode and collision energy of 20 eV. p, and relative oral BA values were calculated as follows: BA% = AUCp.o. normalized by p.o. dose/AUCi.v. normalized by i.v. dose × 100.

APP/PS1 mice [4] = assay: ELISA of Aβ40 and Aβ42 in cortex (Fig 6e); type: in vivo, mouse; design: Ab 40 (ELISA, Figure 6e) / Ab 42 (ELISA, Figure 6e): unit not given beside the values
Protocol: For measurement of Aβ40 and Aβ42, we used commercially available ELISA kits (Invitrogen, KHB3481, and KHB3441). Cortex of mice was homogenized in buffer containing […] guanidine. ELISA was then performed for Aβ40 and Aβ42 according to the manufacturer’s instructions.
as §1

[5] = APP/PS1 + N-AS, individual values, sFig 5d, in % (unit assumed)
[6] = APP/PS1 + N-AS, individual animals

CCCCCCCCCCCCC/C=C/[C@@H](O)[C@H](CO)NC(C)=O [N-AS, N-((2S,3R,E)-1,3-Dihydroxyoctadec-4-en-2-yl)acetamide]
amyloid angiopathy (CAA) quantification (APP/PS1 mice [1]): 0.11 and 0.15 and 0.12 and 0.1 and 0.17 and 0.13 | Aβ plaques by size, 25-50mM (APP/PS1 mice [2]; [5]): 2.008 and 5.136 and 3.485 and 2.167 and 5.808 and 4.496 and 5.407 and 0.9834 and 1.041 | Aβ plaques by size, <25mM (APP/PS1 mice [2]; [5]): 96.4567 and 90.0482 and 94.697 and 95.0162 and 89.7245 and 91.9498 and 90.3491 and 98.0585 and 97.8053 | Aβ plaques by size, >50mM (APP/PS1 mice [2]; [5]): 1.535 and 4.815 and 1.818 and 2.8169 and 4.468 and 3.555 and 4.244 and 0.9581 and 1.154 | medium (25–50 μm) and large-sized (>50 μm) plaques (APP/PS1 mice [2]; N-AS vs vehicle APP/PS1): significant reduction of medium (25–50 μm) and large-sized (>50 μm) plaques | number of small (<25 μm) plaques (APP/PS1 mice [2]; N-AS vs vehicle APP/PS1): significantly increased number of small (<25 μm) plaques | Kp ([3]; iv, i.v. 1 mg/kg): 2.16 | MRT ([3]; iv, i.v. 1 mg/kg): 6.94 ± 0.62 h | half-life ([3]; iv, i.v. 1 mg/kg): 6.31 ± 0.38 h | AUC(0-inf) ([3]; iv, i.v. 1 mg/kg): 1440 ± 228 ng·h/mL | AUC(0-t) ([3]; iv, i.v. 1 mg/kg): 1340 ± 224 ng·h/mL | Kp ([3]; po, p.o. 10 mg/kg): 3.18 | MRT ([3]; po, p.o. 10 mg/kg): 8.64 ± 1.01 h | half-life ([3]; po, p.o. 10 mg/kg): 22 ± 6.07 h | AUC(0-inf) ([3]; po, p.o. 10 mg/kg): 1750 ± 362 ng·h/mL | AUC(0-t) ([3]; po, p.o. 10 mg/kg): 895 ± 60.5 ng·h/mL | Cmax (Brain) ([3]; i.v. 1 mg/kg): 165.18 ± 18.42 ng/mL | Cmax (Brain) ([3]; p.o. 10 mg/kg): 90.27 ± 2.95 ng/mL | Ab 40 (ELISA, Figure 6e) (APP/PS1 mice [4]; [6]): 1042.75 and 892.25 and 1044 and 676.5 and 692.5 and 668.75 and 689.75 and 1124 | Ab 42 (ELISA, Figure 6e) (APP/PS1 mice [4]; [6]): 921.303 and 908.818 and 878.061 and 828.152 and 906.333 and 894.303 and 859.97 and 905.879 | Aβ levels by ELISA of Aβ40 and Aβ42 (APP/PS1 mice [4]; N-AS vs vehicle APP/PS1): significantly lower Aβ levels
